Common to all, as to format: biochemical
In experiment [1] the target is T1, CYP3A4 (Homo sapiens, UniProt P08684). The experiment is described as follows: Determination of IC50 against CYP3A4 by measurement of inhibition of testosterone metabolism (human liver microsomes, 6-β-OH-testosterone by LC-MS/MS). Set-up: 0.1 mg/mL human liver microsomes. The note with it: read-out: IC50 (Testo.). In outline:
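6-β-OH-testosterone formation was read by LC-MS/MS (MRM, internal standard, standard curve) after eight minutes. Reaction contained testosterone 25 μM, NADPH 1 mM and microsomal protein 0.1 mg/mL in pH 7.4 potassium phosphate (100 mM).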

Experiment [2] concerns the target T1, CYP3A4. The experiment is described as follows: Determination of compound Kiapp against recombinant CYP3A4 enzyme (BFC fluorescent substrate). In outline: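 Kiapp derived from initial velocities over the first 5 min of BFC (5 uM) oxidation, using Morrison's tight-binding equation for non-partial and Szedlacsek's for partial inhibitors. Inhibitor first pre-incubated ≥30 min with CYP3A4 (5.5 or 8 nM, ±b5) in pH 7.0 phosphate/TCEP/2% DMF at room temperature; 200 uM NADPH initiated.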

Experiment [3] concerns the target T1, CYP3A4. Description: Determination of IC50 against CYP3A4 by measurement of inhibition of midazolam metabolism (human liver microsomes, 1-hydroxymidazolam by LC-MS/MS). The conditions noted are these: 2 μM midazolam, 0.1 mg/mL human liver microsomes. Details: 0.1 mg/mL human liver microsomes. Put shortly: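 Human liver microsomes (0.1 mg/mL) incubated 8 min with 2 μM midazolam and 1 mM NADPH in 100 mM potassium phosphate, pH 7.4. 1-Hydroxymidazolam quantified by LC-MS/MS (MRM) as peak area ratio to internal standard against a metabolite standard curve.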

Where [4] appears, read: Baculo. enzyme preparation, read-out: Kiapp (BFC, Baculo.).
[5] abbreviates: Super. enzyme preparation, read-out: Kiapp (BFC, Super.).

The values that follow come from patent US7868026B2, “Therapeutic compounds” (Pfizer Inc., priority 2005, dated 2011).

Read-outs that look alike come from different tables or passages of the source. Where only a bound is given, the exact number is not on record here.

A word on the IC50: it is the concentration needed to halve the response being measured.

T1 sequence (P08684 whole entry): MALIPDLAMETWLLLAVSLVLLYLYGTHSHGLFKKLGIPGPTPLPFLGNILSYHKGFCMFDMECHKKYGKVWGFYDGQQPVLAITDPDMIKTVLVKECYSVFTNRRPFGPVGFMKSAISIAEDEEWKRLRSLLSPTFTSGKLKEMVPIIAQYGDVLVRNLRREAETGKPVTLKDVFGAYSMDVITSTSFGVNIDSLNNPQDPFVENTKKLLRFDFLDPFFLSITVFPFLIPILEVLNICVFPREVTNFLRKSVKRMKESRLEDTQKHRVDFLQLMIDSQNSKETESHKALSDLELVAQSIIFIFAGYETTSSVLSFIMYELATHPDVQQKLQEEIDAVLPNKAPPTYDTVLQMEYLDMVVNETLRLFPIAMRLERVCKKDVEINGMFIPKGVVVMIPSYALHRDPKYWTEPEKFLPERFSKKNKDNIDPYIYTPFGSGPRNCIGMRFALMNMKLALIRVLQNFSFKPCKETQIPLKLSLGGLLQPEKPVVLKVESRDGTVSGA

Consider `Cc1cncc(NS(=O)(=O)c2ccccc2C(=O)N(C)CCc2ccccc2C)c1` [Example 154, N-methyl-N-[2-(2-methylphenyl)ethyl]-2-{[(5-methylpyridin-3-yl)amino]sulfonyl}benzamide], for which the IC50 came to 23 nM at CYP3A4 [1] and 6 nM at CYP3A4 [3]. Further, the Ki on CYP3A4 [2] (setting [4]) was 11.5 nM; on CYP3A4 [2] (setting [5]), 3.2 nM.
For the compound `COc1cncc(NS(=O)(=O)c2ccc(OCCN3CCNCC3)cc2C(=O)NCc2ccc(F)cc2)c1` [Example 253, N-(4-fluorobenzyl)-2-{[(5-methoxypyridin-3-yl)amino]sulfonyl}-5-(2-piperazin-1-ylethoxy)benzamide], the IC50 on CYP3A4 [1] turned out to be 80 nM; at CYP3A4 [3], 50 nM. The Ki is 203 nM on CYP3A4 [2] (setting [4]) and 35.2 nM at CYP3A4 [2] (setting [5]).
As to `CCCCCN(C)C(=O)c1ccccc1S(=O)(=O)Nc1cnccc1OCC` [Example 272, 2-{[(4-ethoxypyridin-3-yl)amino]sulfonyl}-N-methyl-N-pentylbenzamide], the IC50 on CYP3A4 [1] amounted to 19 nM; at CYP3A4 [3] it was 12 nM. Also, the figures for the Ki at CYP3A4 [2] (setting [4]) and at CYP3A4 [2] (setting [5]) were 67.3 nM and 5.68 nM, respectively.
As for `CN(c1cccnc1)S(=O)(=O)c1ccccc1C(=O)N1CCCC1` [Example 328, N-methyl-N-pyridin-3-yl-2-(pyrrolidin-1-ylcarbonyl)benzenesulfonamide], the half-maximal inhibitory concentration (IC50) on CYP3A4 [1] and at CYP3A4 [3] was more than 750 nM throughout. The values for the Ki at CYP3A4 [2] (setting [4]) and on CYP3A4 [2] (setting [5]) were more than 1000 nM and 484 nM, respectively.
Regarding `Cc1ccccc1CCNC(=O)c1ccccc1S(=O)(=O)Nc1cccnc1` [Example 75, N-[2-(2-methylphenyl)ethyl]-2-[(pyridin-3-ylamino)sulfonyl]benzamide], the IC50 at CYP3A4 [1] stood at 13 nM; at CYP3A4 [3] it was 16 nM. Moreover, the Ki at CYP3A4 [2] (setting [4]) turned out to be 43 nM; at CYP3A4 [2] (setting [5]), 2.4 nM.
For `COc1cncc(NS(=O)(=O)c2ccccc2C(=O)NCc2ccc(F)c(C(F)(F)F)c2)c1` [Example 312, N-[4-fluoro-3-(trifluoromethyl)benzyl]-2-{[(5-methoxypyridin-3-yl)amino]sulfonyl}benzamide], the IC50 at CYP3A4 [1] came out at 12 nM; at CYP3A4 [3] it was 13 nM. Further, the Ki on CYP3A4 [2] (setting [4]) was 8.6 nM; at CYP3A4 [2] (setting [5]), 3.5 nM.
`O=C(c1ccccc1S(=O)(=O)Nc1cccnc1)N1Cc2ccccc2C1` [Example 88, 2-(1,3-dihydro-2H-isoindol-2-ylcarbonyl)-N-pyridin-3-ylbenzenesulfonamide]: the figures for the IC50 on CYP3A4 [1] and on CYP3A4 [3] were 28 nM and 185 nM, respectively. Also, the Ki on CYP3A4 [2] (setting [4]) was 362 nM; on CYP3A4 [2] (setting [5]) it was 47.6 nM.
For `COc1cncc(NS(=O)(=O)c2ccccc2C(=O)NC(C)C(C)C)c1` (stereo not shown) [Example 313, N-(1,2-dimethylpropyl)-2-{[(5-methoxypyridin-3-yl)amino]sulfonyl}benzamide], the IC50 on CYP3A4 [1] came out at 55 nM; at CYP3A4 [3], 19 nM. The Ki worked out at 197 nM on CYP3A4 [2] (setting [4]) and 48.7 nM at CYP3A4 [2] (setting [5]).
In the case of `CCCN(CC1CC1)C(=O)c1ccccc1S(=O)(=O)N(C)c1cncc(OC)c1` [Example 329, N-(cyclopropylmethyl)-2-{[(5-methoxypyridin-3-yl)(methyl)amino]sulfonyl}-N-propylbenzamide], the IC50 at CYP3A4 [1] was determined as 58 nM; at CYP3A4 [3], 32 nM. Moreover, the Ki on CYP3A4 [2] (setting [4]) came to 34 nM; on CYP3A4 [2] (setting [5]), 17.7 nM.
Turning to `Cc1cncc(NS(=O)(=O)c2ccccc2C(=O)NC(C)C2CC2)c1` (stereo not shown) [Example 315, N-(1-cyclopropylethyl)-2-{[(5-methylpyridin-3-yl)amino]sulfonyl}benzamide], the IC50 was 43 nM at CYP3A4 [1] and 22 nM on CYP3A4 [3]. Moreover, the Ki on CYP3A4 [2] (setting [4]) turned out to be 250 nM; at CYP3A4 [2] (setting [5]) it was 42.2 nM.
`COc1cncc(NS(=O)(=O)c2ccccc2C(=O)NC2C3CC4CC(C3)CC2C4)c1` (stereo not shown) [Example 201, N-2-adamantyl-2-{[(5-methoxypyridin-3-yl)amino]sulfonyl}benzamide]: the half-maximal inhibitory concentration (IC50) turned out to be 16 nM on CYP3A4 [1] and 9 nM at CYP3A4 [3]. Also, the Ki at CYP3A4 [2] (setting [4]) is 29.3 nM; at CYP3A4 [2] (setting [5]), 8 nM.
As for `COc1cncc(NS(=O)(=O)c2ccccc2C(=O)N[C@H]2C[C@@H]2c2ccccc2)c1` [Example 232, 2-{[(5-methoxypyridin-3-yl)amino]sulfonyl}-N-[(1S2R)-2-phenylcyclopropyl]benzamide], the IC50 at CYP3A4 [1] came out at 32 nM; on CYP3A4 [3], 28 nM. The Ki was 99.4 nM at CYP3A4 [2] (setting [4]) and 11.5 nM at CYP3A4 [2] (setting [5]).
Turning to `COc1ccccc1CNC(=O)c1ccccc1S(=O)(=O)Nc1cccnc1` [Example 90, N-(2-methoxybenzyl)-2-[(pyridin-3-ylamino)sulfonyl]benzamide], the IC50 came out at 36 nM at CYP3A4 [1] and 10 nM at CYP3A4 [3]. For the same compound, the Ki at CYP3A4 [2] (setting [4]) stood at 313 nM; at CYP3A4 [2] (setting [5]), 25.2 nM.
On the same counts, the results for `Cc1cncc(NS(=O)(=O)c2ccccc2C(=O)NCc2ccc(F)c(F)c2)c1` [Example 320, N-(3,4-difluorobenzyl)-2-{[(5-methylpyridin-3-yl)amino]sulfonyl}benzamide] are 8 nM, 6 nM, 10.1 nM and 28.4 nM.
In the case of `COc1cncc(NS(=O)(=O)c2ccccc2C(=O)NCCc2ccncc2)c1` [Example 383, 2-{[(5-methoxypyridin-3-yl)amino]sulfonyl}-N-(2-pyridin-4-ylethyl)benzamide], the IC50 came to 348 nM on CYP3A4 [1] and 67 nM on CYP3A4 [3]. The Ki at CYP3A4 [2] (setting [4]) came out at 912 nM; on CYP3A4 [2] (setting [5]), 31 nM.
For the compound `COc1ccc(CNC(=O)c2ccccc2S(=O)(=O)N(C)c2cccnc2)cc1` [Example 336, N-(4-methoxybenzyl)-2-{[methyl(pyridin-3-yl)amino]sulfonyl}benzamide], the IC50 on CYP3A4 [1] stood at 19 nM; at CYP3A4 [3], 37 nM. Further, the Ki at CYP3A4 [2] (setting [4]) stood at 319 nM; on CYP3A4 [2] (setting [5]) it was 68.2 nM.
Take `Cc1ccncc1NS(=O)(=O)c1ccccc1C(=O)N(C)Cc1ccc(F)c(F)c1` [Example 172, N-(3,4-difluorobenzyl)-N-methyl-2-{[(4-methylpyridin-3-yl)amino]sulfonyl}benzamide]: the IC50 on CYP3A4 [1] turned out to be 34 nM; at CYP3A4 [3] it was 44 nM. Moreover, the Ki at CYP3A4 [2] (setting [4]) came to 173 nM; on CYP3A4 [2] (setting [5]), 21.7 nM.
Take `COc1cncc(NS(=O)(=O)c2ccc(F)cc2C(=O)NCCC(C)C)c1` [Example 303, 5-fluoro-2-{[(5-methoxypyridin-3-yl)amino]sulfonyl}-N-(3-methylbutyl)benzamide]: the IC50 at CYP3A4 [1] stood at 156 nM; at CYP3A4 [3], 30 nM. The Ki is 118 nM at CYP3A4 [2] (setting [4]) and 31.6 nM on CYP3A4 [2] (setting [5]).
Turning to `CCCNC(=O)c1ccccc1S(=O)(=O)Nc1cccnc1` [Example 50, N-propyl-2-[(pyridin-3-ylamino)sulfonyl]benzamide], the IC50 came out at 371 nM on CYP3A4 [1] and 254 nM on CYP3A4 [3]. In addition, the Ki on CYP3A4 [2] (setting [4]) was more than 1000 nM.
Turning to `COc1cncc(NS(=O)(=O)c2ccccc2C(=O)NCC(C)(C)C)c1` [Example 380, N-(2,2-dimethylpropyl)-2-{[(5-methoxypyridin-3-yl)amino]sulfonyl}benzamide], the IC50 came to 29 nM at CYP3A4 [1] and 21 nM at CYP3A4 [3]. For the same compound, the Ki stood at 215 nM at CYP3A4 [2] (setting [4]) and 60.7 nM at CYP3A4 [2] (setting [5]).
